{"source": "patent EP0385952A2", "about": "“Use of a naphthalenmethanamino derivative as antiinflammatory agent and pharmaceutical compositions containing it” (SANDOZ AG, priority 1989, dated 1990)", "key": {"[1]": {"test_system": "neutrophils", "assay": "Neutrophil exocytosis assay (FMLP-stimulated enzyme release)", "assay_type": "cell-based"}, "[2]": {"test_system": "12 + 15-lipoxygenase", "assay": "12 + 15-lipoxygenase inhibition (neutrophil functions)", "assay_type": "cell-based", "details": "read-out: IC₅₀ for 12 + 15-lipoxygenase"}, "[3]": {"test_system": "mice", "assay": "Croton oil-induced pinnal swelling in mice (irritant contact dermatitis, 2.1.2.)", "assay_type": "in vivo", "details": "simultaneous, topical, pinnal weight after 6 hours", "procedure": "(§1) Skin irritation with arachidonic acid or cantharidin is often used to experimentally induce inflammation in order to evaluate the anti-inflammatory activity of a compound [see e.g. Inflammation 8 (1984) 134-135; 10 (1986) 205-214]. NMRI mice (8 animals per group) receive 10 µl of a 10 % solution of arachidonic acid [J.M. Young et al., J. Invest. Derm. 82 (1986) 367-371] in acetone or, respectively, 0.08 % cantharidin [K.E. Swingle et al., Arch. Int. Pharmacodyn. Ther. 254 (1981) 168-176] in acetone applied to the medial and lateral surface of the right external ear. Treatment is performed either prophylactically 30 minutes before irritation (arachidonic acid) or, respectively, either simultaneously with the application of irritant solution or therapeutically 20 minutes after irritation (cantharidin), by a single epicutaneous application of the test compound dissolved in a mixture of N,N-dimethylacetamide, acetone and alcohol (2:2:4). The evaluation of the test group is effected by comparison with a control group of animals having received on the right ear lobe only the carrier substance or the irritant solution. The animals are killed 1.5 hours (arachidonic acid) or, respectively, 17 hours (cantharidin) after application of the irritant and efficacy in assessed by determination of the differences in auricular weight. Differences in weights (D) of right (involved) and left (uninvolved) pinnae of animals treated with test compound and arachidonic acid or cantharidin (T-group) are compared with differences in mice treated with arachidonic acid only or cantharidin only (C-group). Efficacy (%) is calculated according to the equation: [formula]\n(§2) This model is similar to the above (see 2.1.1.). Skin inflammation is induced with 15 µl of 0.23 % croton oil in a mixture of dimethylacetamide, acetone and ethanol (2:4:4), or with 10 µl of 0.005 % TPA [12-O-tetradecanoylphorbol-13-acetate; Sigma] prepared in acetone with 0.5 % dimethylsulfoxide. Topical treatment is performed either simultaneously with the irritation (croton oil) or 20 minutes after the application (TPA). The test compound is prepared in DAE. Efficacy is assessed 6 hours after onset of irritation by determination of the auricular weight as described above."}, "[4]": {"test_system": "human cell line Mono-Mac-6", "assay": "LPS-induced NAP1/IL-8, αTNF- and IL-1β-mRNA accumulation (RNA blotting)", "assay_type": "cell-based", "procedure": "Human Mono-Mac-6 cells, which have many of the phenotypic and functional characteristics of mature peripheral blood monocytes [H. Ziegler et al, Int. J. Cancer 41 (1988) 456-461] are grown up to 10⁶ cells/ml im RPMI 1640 medium supplemented with 10 % FCS, 1 % pen/strep and 0.25 % amphotericin. In each of 6 activation experiments 10⁷ cells are incubated for 4 hours at 37°C and 5 % CO₂. LPS is used in a concentration of 1 µg/ml and the test substance in concentrations of 10⁻⁵ M to 10⁻⁷ M.\nAfter induction times the cells are pelleted [5 min, 1200 rpm, room temperature]. Total cellular RNA is extracted from the pelleted cells using the guanidinium isothiocyanate/cesium chloride method of J.M. Chirgwin et al., Biochemistry 18 (1979) 5294-5299. 10 µg samples of the extracted RNA are size-fractionated by 1.2 % formaldehyde agarose gel electrophoresis [T. Maniatis et al., Molecular Cloning: A Laboratory Manual, Cold Spring Harbour, New York (1982) p. 187-206], transferred to synthetic membranes (Hybond N, Amersham) with 20xSSC (1xSSC is 150 mM NaCl, 15 mM sodium citrate, pH 7.0) overnight. The filters are baked for 2 hours at 65°C and prehybridized for 4 hours at 65°C in 5xSSC, 10x Denhardt's solution (1x Denhardt's solution is 0.02 % bovine serum albumin, 0.02 % polyvinyl pyrrolidone, 0.02 % ficoll), 10 % dextrane sulphate, 20 mM sodium phosphate pH 7.0, 7 % SDS, 100 µg/ml sonicated salmon sperm DNA, and 100 µg/ml polyA. ³²P-labelled synthetic NAP1/IL8, αTNF and IL-1β oligonucleotide probes are used as the hybridization probes. Hybridization is performed at 65°C in the pre-hybridization buffer containing the labelled probe for 16 hours. The blots are washed once in 5 % SDS, 3xSSC, 10x Denhardt's solution, 20 mM sodium phosphate pH 7.0 for 30 minutes at 65°C, and once in 1xSSC, 1 % SDS at 65°C for 30 minutes. Filters are exposed at -70°C to KODAK XAR-5 films using intensifying screens. After washing for 30 minutes in 0.1 % SDS at 65°C, blots are reused for a second hybridization with a β-actin specific oligonucleotide probe to quantitate the mRNA amounts."}, "[5]": {"test_system": "mice", "assay": "TPA-induced pinnal swelling in mice (irritant contact dermatitis, 2.1.2.)", "assay_type": "in vivo", "details": "therapeutic, topical, pinnal weight after 6 hours", "procedure": "as §1, §2"}, "[6]": {"molecular_target": "T1, 5-lipoxygenase (Homo sapiens, UniProt P09917)", "T1 construct": "endogenous in cells", "T1 sequence (P09917 1-674)": "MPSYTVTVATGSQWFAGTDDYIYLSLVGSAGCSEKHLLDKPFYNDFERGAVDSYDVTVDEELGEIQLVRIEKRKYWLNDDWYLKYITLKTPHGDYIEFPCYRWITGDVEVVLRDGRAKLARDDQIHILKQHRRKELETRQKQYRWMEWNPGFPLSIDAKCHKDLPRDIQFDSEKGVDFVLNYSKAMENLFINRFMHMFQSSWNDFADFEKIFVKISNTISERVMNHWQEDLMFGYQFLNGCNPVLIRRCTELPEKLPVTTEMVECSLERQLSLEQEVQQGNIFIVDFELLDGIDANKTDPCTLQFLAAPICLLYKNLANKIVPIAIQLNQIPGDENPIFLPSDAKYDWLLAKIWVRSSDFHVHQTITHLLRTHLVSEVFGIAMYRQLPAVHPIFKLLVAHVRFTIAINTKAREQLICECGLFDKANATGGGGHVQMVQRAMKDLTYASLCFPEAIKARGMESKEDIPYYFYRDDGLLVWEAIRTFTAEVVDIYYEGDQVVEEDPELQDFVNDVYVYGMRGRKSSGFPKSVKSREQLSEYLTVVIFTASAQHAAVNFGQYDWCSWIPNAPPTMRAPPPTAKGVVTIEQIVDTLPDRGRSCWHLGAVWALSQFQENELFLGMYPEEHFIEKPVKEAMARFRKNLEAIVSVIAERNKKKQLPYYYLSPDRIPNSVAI", "assay": "5-lipoxygenase inhibition (neutrophil functions)", "assay_type": "cell-based", "details": "read-out: IC₅₀ for 5-lipoxygenase"}, "[7]": {"details": "remaining level, 10.0 µM, LPS 1 µg/ml, 4 hours"}}, "note": "Where two headings read alike, the source gives them in different places. Marks after values point to notes of the source that are not given here."}
{"smiles": "CN(C/C=C/c1ccc(O)cc1)Cc1cccc2ccccc12", "note": "[compound of the invention, (E)-N-methyl-N-[3-(4-hydroxyphenyl)-2-propenyl]-1-naphthalene-methanamine]", "values": [{"measurement": "IC50", "setting": "[1]; read-out: IC₅₀ for FMLP-stimulated release of azurophil granule enzymes", "result": "> 100", "unit": "µM"}, {"measurement": "IC50", "setting": "[1]; read-out: IC₅₀ for FMLP-stimulated release of lysosomal enzymes", "result": "> 100", "unit": "µM"}, {"measurement": "IC50", "setting": "[1]; read-out: IC₅₀ for FMLP-stimulated release of specific granule enzymes", "result": "> 100", "unit": "µM"}, {"measurement": "IC50", "setting": "[2]", "result": 100, "unit": "µM"}, {"measurement": "Efficacy (%)", "setting": "[3]; test concentration 1.2 %", "result": "67** %"}, {"measurement": "Efficacy (%)", "setting": "[3]; test concentration 3.6 %", "result": "81** %"}, {"measurement": "concentration inhibiting lps-induced transcription of nap-1/il-8, αtnf and il-iβ", "setting": "[4]; mono-mac 6 cell line, summary statement", "result": "about 10 µm"}, {"measurement": "LPS-induced IL-1β-mRNA accumulation decreased to", "setting": "[4]; [7]", "result": 50, "unit": "%"}, {"measurement": "LPS-induced NAP1/IL-8-mRNA accumulation decreased to", "setting": "[4]; [7]", "result": 20, "unit": "%"}, {"measurement": "LPS-induced αTNF-mRNA accumulation decreased to", "setting": "[4]; [7]", "result": 10, "unit": "%"}, {"measurement": "Efficacy (%)", "setting": "[5]; test concentration 1.2 %", "result": 51, "unit": "%"}, {"measurement": "Efficacy (%)", "setting": "[5]; test concentration 3.6 %", "result": "60*** %"}, {"measurement": "IC50", "setting": "[6]", "result": 44, "unit": "µM"}]}
